Here are results for one compound from paper PMC6297244, “Synthesis and Kinetic evaluation of an azido analogue of methylerythritol phosphate: a Novel Inhibitor of E. coli YgbP/IspD” (Scientific Reports, 2018).

The assay deals with T1, YgbP/IspD (Escherichia coli, UniProt Q46893).
T1 sequence (Q46893 2-236): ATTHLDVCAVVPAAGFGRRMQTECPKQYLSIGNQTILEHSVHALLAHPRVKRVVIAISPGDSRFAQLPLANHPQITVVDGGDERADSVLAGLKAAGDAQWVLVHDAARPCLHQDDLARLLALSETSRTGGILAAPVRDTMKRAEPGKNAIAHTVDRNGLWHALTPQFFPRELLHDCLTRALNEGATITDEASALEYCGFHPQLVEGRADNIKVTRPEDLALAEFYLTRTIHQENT
Nature of the assay: steady-state inhibition kinetics, malachite green phosphate assay coupled to inorganic pyrophosphatase. The format is biochemical.

For orientation: Ki means the equilibrium dissociation constant of an inhibitor or competing ligand from its target. A low value points to higher affinity. For the compound `[N-]=[N+]=NC[C@](O)(CO)[C@H](O)COP(=O)(O)O` [compound 11, MEPN3], the inhibition constant Ki was found to be 21 ± 3 µM.
